The target in this assay is T1, human MC5R (hMC5R) (Homo sapiens, UniProt P33032).
T1 construct: purchased Perkin Elmer RBXMC5M400UA
T1 sequence (P33032 whole entry): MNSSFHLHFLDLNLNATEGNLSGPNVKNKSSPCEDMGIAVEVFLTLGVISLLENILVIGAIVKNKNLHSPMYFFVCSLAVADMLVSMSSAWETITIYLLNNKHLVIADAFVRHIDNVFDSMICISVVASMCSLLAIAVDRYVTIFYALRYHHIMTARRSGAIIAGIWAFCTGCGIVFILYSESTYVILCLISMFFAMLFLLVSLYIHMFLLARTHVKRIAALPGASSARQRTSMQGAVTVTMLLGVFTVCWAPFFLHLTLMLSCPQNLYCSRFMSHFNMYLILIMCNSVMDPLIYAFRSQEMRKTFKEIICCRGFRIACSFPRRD
As to the kind of experiment: Human MC5R radioligand binding assay ([125I] NDP-MSH displacement). The note with it: hMC5R membranes, [125I] NDP-MSH; tested as trifluoroacetate or hydrochloride salts or free bases; read-out: MC5R radioligand IC50. As for the experimental part: Assessments of compound binding to human MC5R (hMC5R) by displacement of an ^125I-labeled NDP-MSH receptor ligand peptide were performed essentially as described in the data sheets produced by Perkin Elmer to accompany their frozen hMC5R membranes (Perkin Elmer catalog number RBXMC5M400UA).
Na^125I (0.5 mCi, 17.4 Ci/mg) was added to 50 μL sodium phosphate (50 mM, pH 7.4) in an eppendorf tube precoated with IODOGEN. After incubation for 10 mins the phosphate buffer containing the iodine was added to NDP-MSH (10 ul at 1 mg/mL) in a separate eppendorf tube. This was incubated for a further 10 mins. The iodinated NDP-MSH was purified by HPLC on a Zorbax SB 300 column using solvent A: 0.05% TFA and solvent B: 90% acetonitrile 0.045% TFA with a linear gradient, 0-67% B over 60 mins. The ^125I NDP-MSH eluted at 52 min after the unlabeled starting material (48 min) and was counted and stored in the freezer.
Incubation buffer: 25 mM HEPES-KOH (pH 7.0), 1.5 mM CaCl2, 1 mM MgSO4, 0.1 M NaCl, 1 mM 1,10-phenanthroline, and 1 Complete™ protease inhibitor tablet/100 mL (Roche, catalog number 1873580)
Perkin Elmer frozen hMC5 membranes: catalog number RBXMC5M400UA, 0.4 mL/vial; 400 microassays/vial. 0.78 mg/mL protein concentration
Vials of frozen membranes were thawed rapidly immediately before use, diluted with binding buffer and vortexed. Resuspended membranes were kept on ice until they were added to the wells of the plate.
Assays were performed in 96 well polypropylene plates. […] This was incubated for 1 hr at 37° C. […] Non-specific binding just under 5%.
Representative compounds of the present invention were tested for binding in the hMC5R assay as in Example 46, as listed in Table 3. The compounds were tested as their trifluoroacetate or hydrochloride salts, or as their free bases.
Broadly, the IC50 is the midpoint of a concentration-inhibition curve. For `O=C(NC[C@@H]1CCN(CC(c2ccccc2)c2ccccc2)C(=O)[C@H](Cc2ccccc2N2CCCCC2)N1)c1ccc2ccccc2c1` [Compound 71, N-(((3S,5S)-1-(2,2-diphenylethyl)-2-oxo-3-(2-(piperidin-1-yl)benzyl)-1,4-diazepan-5-yl)methyl)-2-naphthamide], the IC50 is < 10000 nM.

As to `CCCCCC[C@@H]1N[C@H](CNC(=O)c2ccc3cc(Cl)ccc3c2)CCN(C[C@@H](CC)c2ccccc2)C1=O` [Compound 75, 6-chloro-N-(((3S,5S)-3-hexyl-2-oxo-1-((S)-2-phenylbutyl)-1,4-diazepan-5-yl)methyl)-2-naphthamide], the IC50 is < 100 nM. On to `CC[C@H](CN1CC[C@@H](CNC(=O)c2ccc3cc(Cl)ccc3c2)N[C@@H](CC(C)C)C1=O)c1ccccc1` [Compound 79, 6-chloro-N-(((3S,5S)-3-isobutyl-2-oxo-1-((S)-2-phenylbutyl)-1,4-diazepan-5-yl)methyl)-2-naphthamide], for which the IC50 was < 10000 nM.

On to `O=C(NC[C@@H]1CCN(CC(c2ccccc2)c2ccccc2)C(=O)[C@H](CCC(=O)N2CCCCC2)N1)c1ccc2ccccc2c1` [Compound 55, N-(((3S,5S)-1-(2,2-diphenylethyl)-2-oxo-3-(3-oxo-3-(piperidin-1-yl)propyl)-1,4-diazepan-5-yl)methyl)-2-naphthamide], for which the IC50 is < 1000 nM.

Turning to `CC[C@H](CN1CC[C@@H](CNC(=O)c2ccc(Cl)c(Cl)c2)N[C@@H](CCC(=O)N2CCCCC2)C1=O)c1ccccc1` [Compound 67, 3,4-dichloro-N-(((3S,5S)-2-oxo-3-(3-oxo-3-(piperidin-1-yl)propyl)-1-((S)-2-phenylbutyl)-1,4-diazepan-5-yl)methyl)benzamide], the IC50 was < 10000 nM. As for `O=C(NC[C@@H]1CCN(CC(c2ccccc2)c2ccccc2)C(=O)[C@H](Cc2ccncc2)N1)c1ccc2ccccc2c1` [Compound 48, N-(((3S,5S)-1-(2,2-diphenylethyl)-2-oxo-3-(pyridin-4-ylmethyl)-1,4-diazepan-5-yl)methyl)-2-naphthamide], the IC50 is < 10000 nM. For `O=C(/C=C/c1ccc(Cl)cc1)NC[C@@H]1CCN(CC(c2ccccc2)c2ccccc2)C(=O)[C@H](CC(=O)N2CCCCC2)N1` [Compound 65, (E)-3-(4-chlorophenyl)-N-(((3S,5S)-1-(2,2-diphenylethyl)-2-oxo-3-(2-oxo-2-(piperidin-1-yl)ethyl)-1,4-diazepan-5-yl)methyl)acrylamide], the IC50 was < 1000 nM.

In the case of `O=C(/C=C/c1ccc(Cl)cc1)NC[C@@H]1CCN(CC(c2ccccc2)c2ccccc2)C(=O)[C@H](Cc2ccccn2)N1` [Compound 45, (E)-3-(4-chlorophenyl)-N-(((3S,5S)-1-(2,2-diphenylethyl)-2-oxo-3-(pyridin-2-ylmethyl)-1,4-diazepan-5-yl)methyl)acrylamide], the IC50 was < 10000 nM. The value for `NC(=O)CC[C@@H]1N[C@H](CNC(=O)c2ccc3ccccc3c2)CCN(CC(c2ccccc2)c2ccccc2)C1=O` [Compound 52, N-(((3S,5S)-3-(3-amino-3-oxopropyl)-1-(2,2-diphenylethyl)-2-oxo-1,4-diazepan-5-yl)methyl)-2-naphthamide] was < 1000 nM. With `CCCCN(C)C(=O)CC[C@@H]1N[C@H](CNC(=O)c2ccc3ccccc3c2)CCN(C[C@@H](CC)c2ccccc2)C1=O` [Compound 72, N-(((3S,5S)-3-(3-(butyl(methyl)amino)-3-oxopropyl)-2-oxo-1-((S)-2-phenylbutyl)-1,4-diazepan-5-yl)methyl)-2-naphthamide] the figure was < 1000 nM. The value for `O=C(NC[C@@H]1CCN(CC(c2ccccc2)c2ccccc2)C(=O)[C@H](CCC2CCCCC2)N1)c1ccc2ccccc2c1` [Compound 59, N-(((3S,5S)-3-(2-cyclohexylethyl)-1-(2,2-diphenylethyl)-2-oxo-1,4-diazepan-5-yl)methyl)-2-naphthamide] was < 1000 nM.

As to `CCCC[C@@H]1N[C@H](CNC(=O)c2ccc3cc(Cl)ccc3c2)CCN(C[C@@H](CC)c2ccccc2)C1=O` [Compound 70, N-(((3S,5S)-3-butyl-2-oxo-1-((S)-2-phenylbutyl)-1,4-diazepan-5-yl)methyl)-6-chloro-2-naphthamide], the IC50 was < 1000 nM.

Turning to `O=C(NC[C@@H]1CCN(CC(c2ccccc2)c2ccccc2)C(=O)[C@H](Cc2ccccc2)N1)c1ccc2ccccc2c1` [Compound 61, N-(((3S,5S)-3-benzyl-1-(2,2-diphenylethyl)-2-oxo-1,4-diazepan-5-yl)methyl)-2-naphthamide], the IC50 was < 1000 nM. For the compound `CC[C@H](CN1CC[C@@H](CNC(=O)c2ccc3cc(Cl)ccc3c2)N[C@@H](CCOCc2ccccc2)C1=O)c1ccccc1` [Compound 78, N-(((3S,5S)-3-(2-(benzyloxy)ethyl)-2-oxo-1-((S)-2-phenylbutyl)-1,4-diazepan-5-yl)methyl)-6-chloro-2-naphthamide], the IC50 is < 10000 nM.

`CC[C@H](CN1CC[C@@H](CNC(=O)c2ccc3cc(Cl)ccc3c2)N[C@@H](CCCCO)C1=O)c1ccccc1` [Compound 76, 6-chloro-N-(((3S,5S)-3-(4-hydroxybutyl)-2-oxo-1-((S)-2-phenylbutyl)-1,4-diazepan-5-yl)methyl)-2-naphthamide]: the IC50 is < 100 nM.

For `O=C(NC[C@@H]1CCN(CC(c2ccccc2)c2ccccc2)C(=O)[C@H](Cc2cccnc2)N1)c1ccc2ccccc2c1` [Compound 47, N-(((3S,5S)-1-(2,2-diphenylethyl)-2-oxo-3-(pyridin-3-ylmethyl)-1,4-diazepan-5-yl)methyl)-2-naphthamide], the IC50 was < 1000 nM.

These data come from patent US8440653B2, “3-substituted-1,4-diazepan-2-one melanocortin-5 receptor antagonists” (Mimetica Pty Ltd, priority 2008, dated 2013).
